Structures are written as SMILES.

Inhibition and IC50 data for 7 molecules are collected here from ChEMBL document CHEMBL6153174, “Design and Synthesis of Novel Deazapurine DNMT 1 Inhibitors with In Vivo Efficacy in DLBCL” (J Med Chem, 2025).

In one experiment the target is T1, Histone-lysine N-methyltransferase EHMT2 (Homo sapiens) (UniProt Q96KQ7).
T1 sequence (whole entry): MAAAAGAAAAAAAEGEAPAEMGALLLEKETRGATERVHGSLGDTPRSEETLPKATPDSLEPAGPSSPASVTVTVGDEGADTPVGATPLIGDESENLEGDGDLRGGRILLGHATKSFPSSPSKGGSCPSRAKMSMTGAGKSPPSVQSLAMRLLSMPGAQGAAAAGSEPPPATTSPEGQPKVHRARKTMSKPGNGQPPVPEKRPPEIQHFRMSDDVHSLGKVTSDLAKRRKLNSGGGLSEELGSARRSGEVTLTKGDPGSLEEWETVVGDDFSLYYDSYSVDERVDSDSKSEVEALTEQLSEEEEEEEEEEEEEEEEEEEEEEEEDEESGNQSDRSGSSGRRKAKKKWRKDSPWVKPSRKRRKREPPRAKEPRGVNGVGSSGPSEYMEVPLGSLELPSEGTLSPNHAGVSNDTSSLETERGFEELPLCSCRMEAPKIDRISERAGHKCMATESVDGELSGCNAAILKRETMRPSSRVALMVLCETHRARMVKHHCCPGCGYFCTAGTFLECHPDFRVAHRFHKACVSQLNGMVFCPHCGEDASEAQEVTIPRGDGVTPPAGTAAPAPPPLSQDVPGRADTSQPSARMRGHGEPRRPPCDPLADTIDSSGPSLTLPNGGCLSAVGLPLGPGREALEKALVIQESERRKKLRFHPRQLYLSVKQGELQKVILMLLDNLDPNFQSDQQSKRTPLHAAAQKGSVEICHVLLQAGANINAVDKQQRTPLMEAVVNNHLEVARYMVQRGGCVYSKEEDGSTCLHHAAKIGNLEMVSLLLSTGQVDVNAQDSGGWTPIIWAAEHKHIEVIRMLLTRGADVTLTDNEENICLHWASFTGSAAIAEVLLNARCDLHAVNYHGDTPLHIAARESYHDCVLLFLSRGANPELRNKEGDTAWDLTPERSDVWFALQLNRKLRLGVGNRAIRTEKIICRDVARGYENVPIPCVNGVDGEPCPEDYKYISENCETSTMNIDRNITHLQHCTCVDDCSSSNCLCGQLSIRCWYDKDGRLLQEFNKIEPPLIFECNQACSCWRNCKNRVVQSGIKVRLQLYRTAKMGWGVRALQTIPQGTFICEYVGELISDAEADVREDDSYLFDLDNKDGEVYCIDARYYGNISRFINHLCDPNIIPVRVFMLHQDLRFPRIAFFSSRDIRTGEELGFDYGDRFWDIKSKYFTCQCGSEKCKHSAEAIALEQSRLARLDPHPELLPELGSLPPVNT
The experiment in a line: Inhibition of G9a (unknown origin) at 5 uM preincubated for 15 mins followed by substrate and [3H-SAM] addition and measured after 60 mins by microbeta analysis relative to control. The note with it: time 75.0 min.
The term inhibition denotes the drop in the measured response relative to a control, in per cent. With `Cc1ccc(-c2cc(NCC3CCN(C(=O)OCc4ccccc4)CC3)c3cnn(CCCN4CCCC4)c3c2)o1`, the inhibition was 9.7%.
On the same count and under the same terms, the same measure for `COc1ccc(-c2nc(NC3CCN(C)CC3)c3ccn(CCCN4CCCC4)c3n2)cn1`: 1%; for `Cc1ccc(-c2nc(NC3CCN(C(C)C)CC3)c3ncn(CCCN4CCCC4)c3n2)o1`: 2.5%.
Still for that read-out and setting: the same measure for `CC(C)N1CCC(Nc2nc(-c3ccc(F)cc3)nc3c2ncn3CCCN2CCCC2)CC1`: -4.9%.

The subject of another experiment is MV4-11. The experiment in a line: Antiproliferative activity against human MV4-11 cells assessed as inhibition of cell viability measured after 72 hrs by MTT assay. The format is functional, cell-based. The note with it: MV4-11, 72 h. For orientation: Tetrazolium dyes change colour on reduction, which living cells bring about.
For orientation: IC50 means the concentration that gives 50% inhibition. On to `CN1CCN(c2cc(NCC3CCN(C(=O)C(C)(C)C)CC3)c3cnn(CCCN4CCOCC4)c3c2)CC1`, for which the IC50 stood at 24.4 µM.
For `CN1CCN(c2cc(NCC3CCN(C(=O)NC(C)(C)C)CC3)c3cnn(CCCN4CCOCC4)c3c2)CC1`, the IC50 turned out to be 19.4 µM.
Still for that read-out and setting: the same measure for `Cc1ccc(-c2cc(NCC3CCN(C(=O)OCc4ccccc4)CC3)c3cnn(CCCN4CCCC4)c3c2)o1`: 1.07 µM; for `COc1ccc(-c2nc(NC3CCN(C)CC3)c3ccn(CCCN4CCCC4)c3n2)cn1`: 10.2 µM; for `CN1CCN(c2cc(NCC3CCN(C(=O)C4CCC4)CC3)c3cnn(CCCN4CCOCC4)c3c2)CC1`: 34.5 µM.
Same read-out and setting: the same measure for `Cc1ccc(-c2nc(NC3CCN(C(C)C)CC3)c3ncn(CCCN4CCCC4)c3n2)o1`: 46.1 µM.
Regarding `CC(C)N1CCC(Nc2nc(-c3ccc(F)cc3)nc3c2ncn3CCCN2CCCC2)CC1`, the 50% inhibitory concentration (IC50) worked out at 10.4 µM.

Another experiment relates to U-937. As to the kind of experiment: Antiproliferative activity against human U-937 cells assessed as inhibition of cell viability measured after 72 hrs by MTT assay. In kind it is functional, cell-based. The note with it: U-937, 72 h.
Consider `Cc1ccc(-c2cc(NCC3CCN(C(=O)OCc4ccccc4)CC3)c3cnn(CCCN4CCCC4)c3c2)o1`, for which the IC50 was found to be 6.95 µM.
Take `COc1ccc(-c2nc(NC3CCN(C)CC3)c3ccn(CCCN4CCCC4)c3n2)cn1`: the IC50 worked out at 4.53 µM.
Same read-out and setting: the same measure for `Cc1ccc(-c2nc(NC3CCN(C(C)C)CC3)c3ncn(CCCN4CCCC4)c3n2)o1`: 55.2 µM.
Same read-out and setting: the same measure for `CC(C)N1CCC(Nc2nc(-c3ccc(F)cc3)nc3c2ncn3CCCN2CCCC2)CC1`: 12.8 µM.

The next experiment deals with T2, DNA (cytosine-5)-methyltransferase 3B (Homo sapiens, UniProt Q9UBC3). The experiment in a line: Inhibition of DNMT3B (unknown origin) at 5 uM preincubated for 15 mins followed by substrate and [3H-SAM] addition and measured after 60 mins by microbeta analysis relative to control. The note with it: time 75.0 min.
Turning to `Cc1ccc(-c2cc(NCC3CCN(C(=O)OCc4ccccc4)CC3)c3cnn(CCCN4CCCC4)c3c2)o1`, the inhibition was determined as 53%.
Same read-out and setting: the same measure for `COc1ccc(-c2nc(NC3CCN(C)CC3)c3ccn(CCCN4CCCC4)c3n2)cn1`: 1.2%; for `Cc1ccc(-c2nc(NC3CCN(C(C)C)CC3)c3ncn(CCCN4CCCC4)c3n2)o1`: 2%; for `CC(C)N1CCC(Nc2nc(-c3ccc(F)cc3)nc3c2ncn3CCCN2CCCC2)CC1`: 11%.

In the next experiment the target is T3, DNA (cytosine-5)-methyltransferase 1 (Homo sapiens, UniProt P26358). The experiment in a line: Inhibition of DNMT1 (unknown origin) at 1 uM preincubated for 15 mins followed by substrate and [3H-SAM] addition and measured after 60 mins by microbeta analysis relative to control. The settings on record: time 75.0 min.
T3 sequence (P26358 whole entry): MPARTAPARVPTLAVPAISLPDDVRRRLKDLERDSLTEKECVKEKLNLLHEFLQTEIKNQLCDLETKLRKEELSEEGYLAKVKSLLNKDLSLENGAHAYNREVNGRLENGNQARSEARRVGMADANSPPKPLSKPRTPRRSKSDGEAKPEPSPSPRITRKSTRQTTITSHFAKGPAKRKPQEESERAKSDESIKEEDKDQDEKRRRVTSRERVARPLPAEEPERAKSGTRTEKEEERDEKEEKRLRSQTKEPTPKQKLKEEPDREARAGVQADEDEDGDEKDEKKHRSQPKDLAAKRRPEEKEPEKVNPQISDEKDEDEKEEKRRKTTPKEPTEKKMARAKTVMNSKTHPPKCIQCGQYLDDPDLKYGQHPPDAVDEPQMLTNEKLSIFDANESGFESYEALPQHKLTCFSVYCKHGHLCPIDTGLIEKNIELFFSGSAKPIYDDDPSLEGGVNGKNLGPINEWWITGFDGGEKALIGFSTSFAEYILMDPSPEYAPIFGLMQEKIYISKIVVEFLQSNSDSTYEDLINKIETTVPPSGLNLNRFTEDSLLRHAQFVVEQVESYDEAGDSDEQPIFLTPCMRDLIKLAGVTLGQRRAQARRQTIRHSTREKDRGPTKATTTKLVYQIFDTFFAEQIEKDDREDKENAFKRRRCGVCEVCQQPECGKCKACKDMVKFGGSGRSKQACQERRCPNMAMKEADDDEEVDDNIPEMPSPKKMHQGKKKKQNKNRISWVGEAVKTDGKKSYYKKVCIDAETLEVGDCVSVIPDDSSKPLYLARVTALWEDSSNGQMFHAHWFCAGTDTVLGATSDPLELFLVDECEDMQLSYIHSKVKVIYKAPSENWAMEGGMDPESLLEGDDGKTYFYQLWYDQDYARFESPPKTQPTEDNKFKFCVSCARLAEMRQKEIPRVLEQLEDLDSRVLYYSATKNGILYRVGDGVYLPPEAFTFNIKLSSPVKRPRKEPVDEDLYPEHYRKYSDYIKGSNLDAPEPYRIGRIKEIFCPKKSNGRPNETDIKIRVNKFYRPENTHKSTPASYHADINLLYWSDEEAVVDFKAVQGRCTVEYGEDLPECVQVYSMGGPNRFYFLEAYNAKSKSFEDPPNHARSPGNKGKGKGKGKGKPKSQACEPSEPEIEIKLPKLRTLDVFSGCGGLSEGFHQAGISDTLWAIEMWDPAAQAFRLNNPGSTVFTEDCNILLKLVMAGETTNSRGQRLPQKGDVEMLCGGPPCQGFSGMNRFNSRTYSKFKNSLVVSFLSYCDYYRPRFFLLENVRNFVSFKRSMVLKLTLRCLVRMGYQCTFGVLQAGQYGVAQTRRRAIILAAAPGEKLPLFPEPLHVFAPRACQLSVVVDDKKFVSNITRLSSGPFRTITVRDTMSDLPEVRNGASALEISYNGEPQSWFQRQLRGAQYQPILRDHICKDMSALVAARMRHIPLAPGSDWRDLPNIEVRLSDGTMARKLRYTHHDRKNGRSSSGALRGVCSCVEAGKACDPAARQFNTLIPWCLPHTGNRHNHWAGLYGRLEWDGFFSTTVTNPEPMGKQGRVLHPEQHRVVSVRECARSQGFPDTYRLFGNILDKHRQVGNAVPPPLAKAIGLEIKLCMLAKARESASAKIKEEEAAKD
On to `CN1CCN(c2cc(NCC3CCN(C(=O)C(C)(C)C)CC3)c3cnn(CCCN4CCOCC4)c3c2)CC1`, for which the inhibition was 41%.
As for `CN1CCN(c2cc(NCC3CCN(C(=O)NC(C)(C)C)CC3)c3cnn(CCCN4CCOCC4)c3c2)CC1`, the inhibition came to 0.91%.
On the same count and under the same terms, the same measure for `CN1CCN(c2cc(NCC3CCN(C(=O)C4CCC4)CC3)c3cnn(CCCN4CCOCC4)c3c2)CC1`: 9.3%.

A further experiment has as its target T3, DNA (cytosine-5)-methyltransferase 1. The experiment in a line: Inhibition of DNMT1 (unknown origin) preincubated for 15 mins followed by substrate and [3H-SAM] addition and measured after 60 mins by microbeta analysis.
Conditions: not given
As for `Cc1ccc(-c2cc(NCC3CCN(C(=O)OCc4ccccc4)CC3)c3cnn(CCCN4CCCC4)c3c2)o1`, the IC50 is > 30 µM.
`COc1ccc(-c2nc(NC3CCN(C)CC3)c3ccn(CCCN4CCCC4)c3n2)cn1` had an IC50 of 1.9 µM.
The same measure, in the same setting: the same measure for `Cc1ccc(-c2nc(NC3CCN(C(C)C)CC3)c3ncn(CCCN4CCCC4)c3n2)o1`: 23.8 µM.
The same measure, in the same setting: the same measure for `CC(C)N1CCC(Nc2nc(-c3ccc(F)cc3)nc3c2ncn3CCCN2CCCC2)CC1`: 17.4 µM.

The target in a further experiment is T2, DNA (cytosine-5)-methyltransferase 3B. The experiment in a line: Inhibition of DNMT3B (unknown origin) preincubated for 15 mins followed by substrate and [3H-SAM] addition and measured after 60 mins by microbeta analysis.
Conditions: not given
Consider `COc1ccc(-c2nc(NC3CCN(C)CC3)c3ccn(CCCN4CCCC4)c3n2)cn1`, for which the half-inhibitory concentration (IC50) is > 20 µM.

The target of a further experiment is T4, DNA (cytosine-5)-methyltransferase 3A (Homo sapiens, UniProt Q9Y6K1). As to the kind of experiment: Inhibition of DNMT3A (unknown origin) at 5 uM preincubated for 15 mins followed by substrate and [3H-SAM] addition and measured after 60 mins by microbeta analysis relative to control. The note with it: time 75.0 min.
T4 sequence (Q9Y6K1 whole entry, looked up): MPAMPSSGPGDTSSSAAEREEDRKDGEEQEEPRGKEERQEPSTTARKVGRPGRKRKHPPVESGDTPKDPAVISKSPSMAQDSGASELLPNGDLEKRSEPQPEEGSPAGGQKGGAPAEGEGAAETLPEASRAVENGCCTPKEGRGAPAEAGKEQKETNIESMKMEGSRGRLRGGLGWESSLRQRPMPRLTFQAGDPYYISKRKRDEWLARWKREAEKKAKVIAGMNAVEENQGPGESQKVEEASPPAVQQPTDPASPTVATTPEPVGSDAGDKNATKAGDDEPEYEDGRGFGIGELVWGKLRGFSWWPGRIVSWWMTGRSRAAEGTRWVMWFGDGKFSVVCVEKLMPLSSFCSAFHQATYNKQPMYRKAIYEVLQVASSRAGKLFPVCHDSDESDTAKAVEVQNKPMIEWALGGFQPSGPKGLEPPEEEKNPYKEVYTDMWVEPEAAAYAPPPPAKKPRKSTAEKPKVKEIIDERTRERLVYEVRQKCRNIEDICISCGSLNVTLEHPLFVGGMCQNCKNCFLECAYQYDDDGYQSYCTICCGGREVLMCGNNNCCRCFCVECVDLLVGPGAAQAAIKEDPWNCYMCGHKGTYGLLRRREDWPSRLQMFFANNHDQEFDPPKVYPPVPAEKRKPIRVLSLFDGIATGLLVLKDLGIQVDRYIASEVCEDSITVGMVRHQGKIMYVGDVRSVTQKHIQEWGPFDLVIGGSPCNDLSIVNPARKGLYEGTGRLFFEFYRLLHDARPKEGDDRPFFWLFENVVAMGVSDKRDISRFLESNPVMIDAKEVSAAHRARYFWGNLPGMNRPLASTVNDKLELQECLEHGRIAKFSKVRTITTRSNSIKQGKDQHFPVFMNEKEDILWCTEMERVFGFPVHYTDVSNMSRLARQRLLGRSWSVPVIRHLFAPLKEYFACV
Regarding `Cc1ccc(-c2cc(NCC3CCN(C(=O)OCc4ccccc4)CC3)c3cnn(CCCN4CCCC4)c3c2)o1`, the inhibition is 12%.
Still for that read-out and setting: the same measure for `COc1ccc(-c2nc(NC3CCN(C)CC3)c3ccn(CCCN4CCCC4)c3n2)cn1`: 15%; for `Cc1ccc(-c2nc(NC3CCN(C(C)C)CC3)c3ncn(CCCN4CCCC4)c3n2)o1`: 22%.
On the same count and under the same terms, the same measure for `CC(C)N1CCC(Nc2nc(-c3ccc(F)cc3)nc3c2ncn3CCCN2CCCC2)CC1`: 14%.

The next experiment concerns the target T5, Histone-lysine N-methyltransferase EHMT2 (Homo sapiens, UniProt Q96KQ7).
T5 sequence (Q96KQ7 whole entry): T1 sequence (whole entry)
As to the kind of experiment: Inhibition of G9a (unknown origin) preincubated for 15 mins followed by substrate and [3H-SAM] addition and measured after 60 mins by microbeta analysis.
Conditions: not given
Consider `COc1ccc(-c2nc(NC3CCN(C)CC3)c3ccn(CCCN4CCCC4)c3n2)cn1`, for which the IC50 was > 20 µM.

In the next experiment the target is T4, DNA (cytosine-5)-methyltransferase 3A. As to the kind of experiment: Inhibition of DNMT3A (unknown origin) preincubated for 15 mins followed by substrate and [3H-SAM] addition and measured after 60 mins by microbeta analysis.
Conditions: not given
`COc1ccc(-c2nc(NC3CCN(C)CC3)c3ccn(CCCN4CCCC4)c3n2)cn1` came in with an IC50 of 18.3 µM.

The next experiment deals with T3, DNA (cytosine-5)-methyltransferase 1. As to the kind of experiment: Inhibition of DNMT1 (unknown origin) at 5 uM preincubated for 15 mins followed by substrate and [3H-SAM] addition and measured after 60 mins by microbeta analysis relative to control. The note with it: time 75.0 min.
Turning to `Cc1ccc(-c2cc(NCC3CCN(C(=O)OCc4ccccc4)CC3)c3cnn(CCCN4CCCC4)c3c2)o1`, the inhibition turned out to be 0.36%.
The same measure, in the same setting: the same measure for `COc1ccc(-c2nc(NC3CCN(C)CC3)c3ccn(CCCN4CCCC4)c3n2)cn1`: 49%; for `Cc1ccc(-c2nc(NC3CCN(C(C)C)CC3)c3ncn(CCCN4CCCC4)c3n2)o1`: 37%; for `CC(C)N1CCC(Nc2nc(-c3ccc(F)cc3)nc3c2ncn3CCCN2CCCC2)CC1`: 3.3%.
